The NIST ThermoML archive (doi:10.1021/acs.jced.7b00106)
Numbers after ± are expanded uncertainties.

Settings: Hot wire method

FC(F)(F)/C=C/Cl [(E)-1-chloro-3,3,3-trifluoroprop-1-ene]
Settings | thermal conductivity [W/m/K]
402.34 K, 675 kPa, Fluid (supercritical or subcritical phases) | 0.01919 ± 0.0011
402.35 K, 18638 kPa, Liquid | 0.06815 ± 0.00078
402.35 K, 18644 kPa, Liquid | 0.06814 ± 0.00084
402.36 K, 4694 kPa, Liquid | 0.05768 ± 0.00067
402.36 K, 4699 kPa, Liquid | 0.05769 ± 0.00069
402.37 K, 9102 kPa, Liquid | 0.06154 ± 0.0014
402.37 K, 9105 kPa, Liquid | 0.06157 ± 0.0017
402.37 K, 33596 kPa, Liquid | 0.07616 ± 0.0024
402.38 K, 1202 kPa, Fluid (supercritical or subcritical phases) | 0.01949 ± 0.002
402.38 K, 1203 kPa, Fluid (supercritical or subcritical phases) | 0.0195 ± 0.002
402.38 K, 1623 kPa, Fluid (supercritical or subcritical phases) | 0.02057 ± 0.0047
402.38 K, 1624 kPa, Fluid (supercritical or subcritical phases) | 0.02063 ± 0.0063
402.38 K, 33572 kPa, Liquid | 0.0761 ± 0.0045
402.41 K, 3571 kPa, Liquid | 0.05649 ± 0.00075
402.41 K, 3575 kPa, Liquid | 0.05649 ± 0.00073
402.42 K, 1105 kPa, Fluid (supercritical or subcritical phases) | 0.01939 ± 0.0019
402.43 K, 1105 kPa, Fluid (supercritical or subcritical phases) | 0.01943 ± 0.0019
402.43 K, 7089 kPa, Liquid | 0.05988 ± 0.00071
402.44 K, 2633 kPa, Liquid | 0.05536 ± 0.00081
402.44 K, 2641 kPa, Liquid | 0.05542 ± 0.00063
402.44 K, 7097 kPa, Liquid | 0.05991 ± 0.0014
402.44 K, 15789 kPa, Liquid | 0.06632 ± 0.0013
402.44 K, 15790 kPa, Liquid | 0.06635 ± 0.001
402.44 K, 24987 kPa, Liquid | 0.07171 ± 0.002
402.44 K, 24992 kPa, Liquid | 0.07169 ± 0.0019
402.46 K, 1000 kPa, Fluid (supercritical or subcritical phases) | 0.01927 ± 0.0022
402.47 K, 1001 kPa, Fluid (supercritical or subcritical phases) | 0.01932 ± 0.0022
402.47 K, 1515 kPa, Fluid (supercritical or subcritical phases) | 0.02021 ± 0.0025
402.47 K, 1844 kPa, Liquid | 0.0544 ± 0.0013
402.47 K, 1854 kPa, Liquid | 0.05447 ± 0.0009
402.48 K, 1515 kPa, Fluid (supercritical or subcritical phases) | 0.02026 ± 0.004
402.5 K, 848 kPa, Fluid (supercritical or subcritical phases) | 0.01923 ± 0.0013
402.5 K, 13367 kPa, Liquid | 0.06472 ± 0.0013
402.5 K, 13371 kPa, Liquid | 0.0647 ± 0.0013
402.51 K, 846 kPa, Fluid (supercritical or subcritical phases) | 0.01926 ± 0.0021
402.52 K, 1406 kPa, Fluid (supercritical or subcritical phases) | 0.01993 ± 0.003
402.52 K, 1407 kPa, Fluid (supercritical or subcritical phases) | 0.01994 ± 0.0031
402.53 K, 21658 kPa, Liquid | 0.06987 ± 0.00078
402.54 K, 21643 kPa, Liquid | 0.06986 ± 0.00079
402.56 K, 28722 kPa, Liquid | 0.07362 ± 0.0014
402.57 K, 5983 kPa, Liquid | 0.05888 ± 0.0011
402.57 K, 5985 kPa, Liquid | 0.05888 ± 0.00088
402.57 K, 11101 kPa, Liquid | 0.06313 ± 0.00071
402.57 K, 28741 kPa, Liquid | 0.07367 ± 0.0011
402.58 K, 1306 kPa, Fluid (supercritical or subcritical phases) | 0.01976 ± 0.0043
402.58 K, 1307 kPa, Fluid (supercritical or subcritical phases) | 0.01973 ± 0.004
402.58 K, 11088 kPa, Liquid | 0.06313 ± 0.00077
402.6 K, 18623 kPa, Liquid | 0.06809 ± 0.0017
402.61 K, 676 kPa, Fluid (supercritical or subcritical phases) | 0.01925 ± 0.0019
402.61 K, 4688 kPa, Liquid | 0.05758 ± 0.00095
402.61 K, 18624 kPa, Liquid | 0.06809 ± 0.0017
402.61 K, 33585 kPa, Liquid | 0.07607 ± 0.0019
402.62 K, 4693 kPa, Liquid | 0.05763 ± 0.00095
402.62 K, 33568 kPa, Liquid | 0.07592 ± 0.0013
402.63 K, 1203 kPa, Fluid (supercritical or subcritical phases) | 0.01956 ± 0.0032
402.63 K, 9088 kPa, Liquid | 0.06152 ± 0.0012
402.63 K, 9104 kPa, Liquid | 0.06148 ± 0.0012
402.65 K, 1203 kPa, Fluid (supercritical or subcritical phases) | 0.01959 ± 0.0033
402.66 K, 3574 kPa, Liquid | 0.05645 ± 0.002
402.66 K, 3575 kPa, Liquid | 0.05645 ± 0.002
402.69 K, 1104 kPa, Fluid (supercritical or subcritical phases) | 0.01945 ± 0.0028
402.69 K, 1106 kPa, Fluid (supercritical or subcritical phases) | 0.01948 ± 0.003
402.69 K, 7089 kPa, Liquid | 0.05985 ± 0.00084
402.69 K, 15783 kPa, Liquid | 0.06633 ± 0.00075
402.69 K, 15792 kPa, Liquid | 0.06633 ± 0.00091
402.69 K, 24993 kPa, Liquid | 0.07169 ± 0.00081
402.7 K, 2638 kPa, Liquid | 0.0554 ± 0.00063
402.7 K, 7091 kPa, Liquid | 0.0599 ± 0.001
402.7 K, 25001 kPa, Liquid | 0.07172 ± 0.0011
402.71 K, 2639 kPa, Liquid | 0.05542 ± 0.0015
402.74 K, 1850 kPa, Liquid | 0.05446 ± 0.0018
402.75 K, 1000 kPa, Fluid (supercritical or subcritical phases) | 0.01939 ± 0.0038
402.75 K, 1852 kPa, Liquid | 0.05457 ± 0.0018
402.76 K, 13350 kPa, Liquid | 0.06467 ± 0.00073
402.76 K, 13371 kPa, Liquid | 0.06472 ± 0.00096
402.78 K, 848 kPa, Fluid (supercritical or subcritical phases) | 0.01932 ± 0.0027
402.79 K, 846 kPa, Fluid (supercritical or subcritical phases) | 0.01931 ± 0.0017
402.79 K, 21633 kPa, Liquid | 0.06986 ± 0.00083
402.8 K, 21636 kPa, Liquid | 0.06986 ± 0.00082
402.82 K, 28727 kPa, Liquid | 0.07362 ± 0.00085
402.84 K, 5979 kPa, Liquid | 0.05886 ± 0.00072
402.84 K, 5987 kPa, Liquid | 0.05889 ± 0.00072
402.84 K, 11088 kPa, Liquid | 0.0631 ± 0.0011
402.84 K, 28733 kPa, Liquid | 0.07365 ± 0.0014
402.85 K, 11093 kPa, Liquid | 0.06312 ± 0.001
402.86 K, 18624 kPa, Liquid | 0.06805 ± 0.00077
402.87 K, 18643 kPa, Liquid | 0.06812 ± 0.00084
402.89 K, 4691 kPa, Liquid | 0.05763 ± 0.00076
402.89 K, 4699 kPa, Liquid | 0.05767 ± 0.00076
402.9 K, 9108 kPa, Liquid | 0.06161 ± 0.0022
402.9 K, 33571 kPa, Liquid | 0.07603 ± 0.0014
402.91 K, 674 kPa, Fluid (supercritical or subcritical phases) | 0.01931 ± 0.0018
402.91 K, 9096 kPa, Liquid | 0.0616 ± 0.0011
402.91 K, 33586 kPa, Liquid | 0.07604 ± 0.0011
402.93 K, 3567 kPa, Liquid | 0.05645 ± 0.001
402.94 K, 3574 kPa, Liquid | 0.05661 ± 0.001
402.96 K, 15767 kPa, Liquid | 0.06628 ± 0.001
402.96 K, 24990 kPa, Liquid | 0.07167 ± 0.0011
402.96 K, 25002 kPa, Liquid | 0.07171 ± 0.0014
402.97 K, 7096 kPa, Liquid | 0.05991 ± 0.0011
402.97 K, 15769 kPa, Liquid | 0.0663 ± 0.001
402.98 K, 2633 kPa, Liquid | 0.05541 ± 0.0024
402.98 K, 7087 kPa, Liquid | 0.05989 ± 0.00068
402.99 K, 2643 kPa, Liquid | 0.05551 ± 0.0022
403 K, 1856 kPa, Liquid | 0.0546 ± 0.0017
403.01 K, 1850 kPa, Liquid | 0.05458 ± 0.0017
403.03 K, 21637 kPa, Liquid | 0.06984 ± 0.00089
403.04 K, 13347 kPa, Liquid | 0.06471 ± 0.00073
403.04 K, 13368 kPa, Liquid | 0.06474 ± 0.00085
403.07 K, 21655 kPa, Liquid | 0.06986 ± 0.00085
403.09 K, 28719 kPa, Liquid | 0.0736 ± 0.0011
403.1 K, 28719 kPa, Liquid | 0.07336 ± 0.0012
403.11 K, 5980 kPa, Liquid | 0.05886 ± 0.001
403.12 K, 5983 kPa, Liquid | 0.05891 ± 0.00084
403.12 K, 11089 kPa, Liquid | 0.06307 ± 0.00082
403.12 K, 11091 kPa, Liquid | 0.06308 ± 0.00082
403.14 K, 18630 kPa, Liquid | 0.06809 ± 0.00083
403.15 K, 18626 kPa, Liquid | 0.06808 ± 0.0019
403.17 K, 4697 kPa, Liquid | 0.05766 ± 0.00096
403.18 K, 4698 kPa, Liquid | 0.05772 ± 0.00098
403.18 K, 9094 kPa, Liquid | 0.06153 ± 0.00093
403.19 K, 9095 kPa, Liquid | 0.06162 ± 0.00095
403.19 K, 33557 kPa, Liquid | 0.076 ± 0.0011
403.2 K, 33576 kPa, Liquid | 0.07601 ± 0.001
403.23 K, 3569 kPa, Liquid | 0.0565 ± 0.0012
403.24 K, 3565 kPa, Liquid | 0.05654 ± 0.0012
403.24 K, 15779 kPa, Liquid | 0.06628 ± 0.00082
403.24 K, 25000 kPa, Liquid | 0.07167 ± 0.0022
403.25 K, 15789 kPa, Liquid | 0.06631 ± 0.00075
403.25 K, 24985 kPa, Liquid | 0.07165 ± 0.0016
403.27 K, 2641 kPa, Liquid | 0.05557 ± 0.002
403.27 K, 7090 kPa, Liquid | 0.05988 ± 0.001
403.27 K, 7094 kPa, Liquid | 0.05994 ± 0.00086
403.28 K, 2638 kPa, Liquid | 0.05558 ± 0.0014
403.3 K, 1852 kPa, Liquid | 0.05468 ± 0.0027
403.31 K, 1856 kPa, Liquid | 0.05476 ± 0.0043
403.32 K, 13355 kPa, Liquid | 0.06468 ± 0.0021
403.33 K, 13350 kPa, Liquid | 0.06467 ± 0.0021
403.33 K, 21631 kPa, Liquid | 0.0698 ± 0.0018
403.33 K, 21643 kPa, Liquid | 0.06984 ± 0.0016
403.37 K, 28710 kPa, Liquid | 0.07356 ± 0.0059
403.37 K, 28735 kPa, Liquid | 0.0736 ± 0.0067
403.39 K, 11081 kPa, Liquid | 0.06304 ± 0.0013
403.4 K, 5980 kPa, Liquid | 0.05891 ± 0.0012
403.4 K, 11095 kPa, Liquid | 0.06309 ± 0.0012
